These compounds were tested against T1, Polyphenol oxidase 1 (White button mushroom, UniProt Q00024) (assay: Tyrosinase Inhibition Assay). Settings: pH 6.8; 37 °C.
T1 sequence (Q00024 whole entry): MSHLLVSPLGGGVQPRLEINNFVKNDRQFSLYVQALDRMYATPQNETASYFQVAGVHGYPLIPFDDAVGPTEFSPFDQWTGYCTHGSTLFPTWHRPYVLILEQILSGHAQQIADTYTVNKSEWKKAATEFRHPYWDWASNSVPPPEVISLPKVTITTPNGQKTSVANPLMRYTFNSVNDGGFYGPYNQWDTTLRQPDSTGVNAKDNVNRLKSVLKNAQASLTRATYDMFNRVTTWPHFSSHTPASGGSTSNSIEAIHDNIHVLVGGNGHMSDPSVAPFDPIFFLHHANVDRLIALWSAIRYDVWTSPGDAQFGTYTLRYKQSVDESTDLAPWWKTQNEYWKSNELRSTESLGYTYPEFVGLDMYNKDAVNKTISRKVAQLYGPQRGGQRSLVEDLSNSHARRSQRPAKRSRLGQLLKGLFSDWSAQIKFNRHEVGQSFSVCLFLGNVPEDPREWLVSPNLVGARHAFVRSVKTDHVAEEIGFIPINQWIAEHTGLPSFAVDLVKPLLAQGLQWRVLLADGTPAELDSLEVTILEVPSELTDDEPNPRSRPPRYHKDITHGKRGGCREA
Procedure: Briefly, mushroom tyrosinase (1250 units/mL) and 2 mM L-tyrosine (0.07 mL) were added to a solution of phosphate buffer (0.1 M, pH 6.8, 0.09 mL) containing the test sample. The test mixture (0.2 mL) was incubated for 10 min at 37°C and the absorption due to the formation of dopachrome was monitored at 475 nm. The same mixture except for the plant extract was used as a control. Arbutin (hydroquinone-O-β-glucopyranoside) was used as a positive control. Each treatment was replicated three times.

| IC50 | Compound |
| --- | --- |
| 67 µM | CC1OC(Oc2c(-c3ccc(O)cc3)oc3cc(O)cc(O)c3c2=O)C(OC(=O)/C=C/c2ccc(O)cc2)C(OC(=O)/C=C/c2ccc(O)cc2)C1O (stereo not drawn) [Neolitsea aciculata extract, 5] |
| 320 µM | OC[C@H]1O[C@@H](Oc2ccc(O)cc2)[C@H](O)[C@@H](O)[C@@H]1O [4-hydroxyphenyl beta-D-glucopyranoside] |
| 80 µM | CC1OC(Oc2c(-c3ccc(O)cc3)oc3cc(O)cc(O)c3c2=O)C(OC(=O)/C=C/c2ccc(O)cc2)C(O)C1O (stereo not drawn) [Neolitsea aciculata extract, 6] |

Reference: BindingDB's records for doi:10.3109/14756366.2012.670806 (Jeju National University, 2013)
